In ChEMBL document CHEMBL3875162, “Synthesis and biological evaluation of new benzimidazole-thiazolidinedione hybrids as potential cytotoxic and apoptosis inducing agents” (Eur J Med Chem, 2016):
pIC50: −log10 of the molar value.

Legend:
[1] = Cytotoxicity against human A549 cells assessed as cell growth inhibition after 48 hrs by MTT assay; assay type: functional, cell-based; conditions: A549, 48 h
[2] = Cytotoxicity against human PC3 cells assessed as cell growth inhibition after 48 hrs by MTT assay; assay type: functional, cell-based; conditions: PC-3, 48 h
[3] = Cytotoxicity against human MDA-MB-231 cells assessed as cell growth inhibition after 48 hrs by MTT assay; assay type: functional, cell-based; conditions: MDA-MB-231, 48 h
[4] = Cytotoxicity against human DU145 cells assessed as cell growth inhibition after 48 hrs by MTT assay; assay type: functional, cell-based; conditions: DU-145, 48 h
[5] = Cytotoxicity against human MCF10A cells assessed as cell growth inhibition after 48 hrs by MTT assay; assay type: toxicity, cell-based, MCF-10A
[6] = system: A549; assay: Selectivity index, ratio of IC50 for human MCF10A cells to IC50 for human A549 cells; assay type: functional

CC1CN(C(=O)CN2C(=O)S/C(=C\c3nc4ccccc4n3C(C)C)C2=O)CC(C)O1 (centres undefined)
pIC50 [1]: < 4.30
pIC50 [2]: < 4.30
pIC50 [3]: < 4.30
pIC50 [4]: < 4.30

CC(C)n1c(/C=C2\SC(=O)N(CC(=O)Nc3cc(C(C)(C)C)on3)C2=O)nc2ccccc21
pIC50 [1]: < 4.30
pIC50 [2]: < 4.30
pIC50 [3]: < 4.30
pIC50 [4]: < 4.30

CC(C)n1c(/C=C2\SC(=O)N(CC(=O)N3CCCCC3)C2=O)nc2ccccc21
pIC50 [1]: 4.55
pIC50 [2]: < 4.30
pIC50 [3]: < 4.30
pIC50 [4]: 4.37

Cn1c(/C=C2\SC(=O)N(CC(=O)Nc3cc(C(C)(C)C)on3)C2=O)nc2ccccc21
pIC50 [1]: 4.82
IC50 at 48 h [5]: 38.7 µM
pIC50 [2]: < 4.30
pIC50 [3]: 4.47
pIC50 [4]: 4.50
Ratio IC50 [6]: 2.5

CCn1c(/C=C2\SC(=O)N(CC(=O)Nc3nc(-c4ccccc4)cs3)C2=O)nc2ccccc21
pIC50 [1]: < 4.30
pIC50 [2]: < 4.30
pIC50 [3]: < 4.30
pIC50 [4]: < 4.30

Cn1c(/C=C2\SC(=O)N(CC(=O)N3CCCCC3)C2=O)nc2ccccc21
pIC50 [1]: < 4.30
pIC50 [2]: < 4.30
pIC50 [3]: < 4.30
pIC50 [4]: < 4.30

CCn1c(/C=C2\SC(=O)N(CC(=O)N3CCCC3)C2=O)nc2ccccc21
pIC50 [1]: 4.51
pIC50 [2]: < 4.30
pIC50 [3]: < 4.30
pIC50 [4]: 4.35

CC(C)n1c(/C=C2\SC(=O)N(CC(=O)N3CCOCC3)C2=O)nc2ccccc21
pIC50 [1]: < 4.30
pIC50 [2]: < 4.30
pIC50 [3]: < 4.30
pIC50 [4]: < 4.30

COc1cc2c(cc1OC)CN(C(=O)CN1C(=O)S/C(=C\c3nc4ccccc4n3C(C)C)C1=O)CC2
pIC50 [1]: 4.69
IC50 at 48 h [5]: > 100 µM
pIC50 [2]: < 4.30
pIC50 [3]: 4.51
pIC50 [4]: 4.53

CCn1c(/C=C2\SC(=O)N(CC(=O)N3CC(C)OC(C)C3)C2=O)nc2ccccc21 (centres undefined)
pIC50 [1]: < 4.30
pIC50 [2]: < 4.30
pIC50 [3]: < 4.30
pIC50 [4]: < 4.30

Cn1c(/C=C2\SC(=O)N(CC(=O)N3CCOCC3)C2=O)nc2ccccc21
pIC50 [1]: 4.42
pIC50 [2]: < 4.30
pIC50 [3]: < 4.30
pIC50 [4]: 4.39

CCn1c(/C=C2\SC(=O)N(CC(=O)N3CCOCC3)C2=O)nc2ccccc21
pIC50 [1]: < 4.30
pIC50 [2]: < 4.30
pIC50 [3]: < 4.30
pIC50 [4]: < 4.30

CC(C)n1c(/C=C2\SC(=O)N(CC(=O)N3CCCC3)C2=O)nc2ccccc21
pIC50 [1]: < 4.30
pIC50 [2]: < 4.30
pIC50 [3]: < 4.30
pIC50 [4]: < 4.30

CC1CN(C(=O)CN2C(=O)S/C(=C\c3nc4ccccc4n3C)C2=O)CC(C)O1 (centres undefined)
pIC50 [1]: 4.53
pIC50 [2]: < 4.30
pIC50 [3]: < 4.30
pIC50 [4]: < 4.30

CCn1c(/C=C2\SC(=O)N(CC(=O)N3CCCCC3)C2=O)nc2ccccc21
pIC50 [1]: < 4.30
pIC50 [2]: < 4.30
pIC50 [3]: < 4.30
pIC50 [4]: < 4.30

CCn1c(/C=C2\SC(=O)N(CC(=O)N3CCc4cc(OC)c(OC)cc4C3)C2=O)nc2ccccc21
pIC50 [1]: 4.58
pIC50 [2]: 4.47
pIC50 [3]: < 4.30
pIC50 [4]: < 4.30

COc1cc2c(cc1OC)CN(C(=O)CN1C(=O)S/C(=C\c3nc4ccccc4n3C)C1=O)CC2
pIC50 [1]: 4.87
IC50 at 48 h [5]: > 100 µM
pIC50 [2]: 4.39
pIC50 [3]: 4.44
pIC50 [4]: 4.43

CCn1c(/C=C2\SC(=O)N(CC(=O)Nc3cc(C(C)(C)C)on3)C2=O)nc2ccccc21
pIC50 [1]: 4.35
pIC50 [2]: < 4.30
pIC50 [3]: < 4.30
pIC50 [4]: < 4.30

O=c1[nH]cc(F)c(=O)[nH]1 [FLUOROURACIL]
pIC50 [1]: 4.52
pIC50 [2]: 4.34
pIC50 [3]: 4.44
pIC50 [4]: 4.39

Cn1c(/C=C2\SC(=O)N(CC(=O)N3CCCC3)C2=O)nc2ccccc21
pIC50 [1]: < 4.30
pIC50 [2]: < 4.30
pIC50 [3]: < 4.30
pIC50 [4]: < 4.30
